Here are results for 44 compounds from BindingDB's records for doi:10.7270/Q2251GJ9 (The Scripps Research Institute Molecular Screening Center, 2007).

Counter-ions that a name gives are not always drawn.

The target in the first test is Sphingosine 1-phosphate receptor 1 (Homo sapiens, UniProt P21453). Put plainly: direct activation of human S1P1 – cell-based, agonist mode, 60K MLSMR set, dose response (AID 468).
Sphingosine 1-phosphate receptor 1, sequence (P21453 whole entry): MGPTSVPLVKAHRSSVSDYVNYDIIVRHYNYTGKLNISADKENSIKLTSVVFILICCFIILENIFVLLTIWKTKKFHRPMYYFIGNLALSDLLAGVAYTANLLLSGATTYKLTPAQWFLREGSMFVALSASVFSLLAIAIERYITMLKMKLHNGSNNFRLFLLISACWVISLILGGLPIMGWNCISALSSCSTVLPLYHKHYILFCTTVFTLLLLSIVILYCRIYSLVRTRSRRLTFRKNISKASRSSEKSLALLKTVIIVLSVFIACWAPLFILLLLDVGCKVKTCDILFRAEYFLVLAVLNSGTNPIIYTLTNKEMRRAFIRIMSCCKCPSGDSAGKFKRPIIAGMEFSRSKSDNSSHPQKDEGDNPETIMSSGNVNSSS
Settings: not given
Turning to `O=C(Nc1ccc(C(F)(F)F)cc1)C1CCCN1S(=O)(=O)c1cccc2cccnc12` (centres undefined) [1-(8-quinolinylsulfonyl)-N-[4-(trifluoromethyl)phenyl]-2-pyrrolidinecarboxamide], a half-maximal effect (EC50) was put at 9.86 µM.

With `CCn1nc(-c2ccccc2)nc2c(=O)n(C)c(=O)nc1-2` [1-Ethyl-6-methyl-3-phenyl-1H-pyrimido[5,4-e][1,2,4]triazine-5,7-dione], the midpoint of the response, the EC50, lay at 3.55 µM.

For `Cc1cc(C(=O)CSc2nnc(-c3ccco3)o2)c(C)n1-c1ccc2c(c1)OCCO2` [1-[1-(2,3-dihydro-1,4-benzodioxin-6-yl)-2,5-dimethyl-3-pyrrolyl]-2-[[5-(2-furanyl)-1,3,4-oxadiazol-2-yl]thio]ethanone], the midpoint of the response, the EC50, lay at 7.58 µM.

Turning to `Cc1cc(C(=O)CSc2nnnn2C)c(C)n1-c1cccc(F)c1` [1-[1-(3-fluorophenyl)-2,5-dimethyl-3-pyrrolyl]-2-[(1-methyl-5-tetrazolyl)thio]ethanone], the response was half-maximal at 2.23 µM (EC50).

Turning to `COc1ccc(-n2c(C)cc(C(=O)CSc3nnc(-c4cccs4)o3)c2C)cc1` [1-[1-(4-methoxyphenyl)-2,5-dimethyl-3-pyrrolyl]-2-[(5-thiophen-2-yl-1,3,4-oxadiazol-2-yl)thio]ethanone], the EC50 (as a rule, the concentration needed to bring the measured effect to its halfway point) was found to be 2.03 µM.

On to `Cc1csc(SCC(=O)c2cc(C)n(Cc3cccs3)c2C)n1` [1-[2,5-dimethyl-1-(2-thenyl)pyrrol-3-yl]-2-[(4-methylthiazol-2-yl)thio]ethanone], for which the EC50 worked out at 6.76 µM.

The compound `Cc1ccc(-n2c(C)cc(C(=O)CSc3nnnn3C)c2C)cc1` [1-[2,5-dimethyl-1-(4-methylphenyl)-3-pyrrolyl]-2-[(1-methyl-5-tetrazolyl)thio]ethanone] gave a half-maximal effective concentration (EC50) of 4.77 µM.

`Cc1cc(C)n2nc(SCC(=O)c3cc(C)n(-c4cc(C)on4)c3C)nc2n1` [1-[2,5-dimethyl-1-(5-methyl-1,2-oxazol-3-yl)pyrrol-3-yl]-2-[(5,7-dimethyl-[1,2,4]triazolo[1,5-a]pyrimidin-2-yl)sulfanyl]ethanone] gave an EC50 of 4.18 µM.

Regarding `CC(Oc1ccccc1Br)C(=O)N1CCc2ccccc21` (centres undefined) [1-[2-(2-bromophenoxy)propanoyl]indoline], a half-maximal response (EC50) required 6.81 µM.

The compound `Cc1ccc(OCCn2cc(C(=N)NO)c3ccccc32)cc1C` [1-[2-(3,4-dimethylphenoxy)ethyl]-N'-hydroxy-1H-indole-3-carboximidamide] had a half-maximal effective concentration (EC50) of 9.82 µM.

Turning to `CCOc1ccc(-c2nc(CSCC(=O)N3CCN(c4cccc(OC)c4)CC3)c(C)o2)cc1` [1-[4-(3-methoxyphenyl)piperazino]-2-[(5-methyl-2-p-phenetyl-oxazol-4-yl)methylthio]ethanone], the midpoint of the response, the EC50, lay at 9.02 µM.

Take `Cc1nnc(SCC(=O)N2CCC(c3noc4ccc(F)cc34)CC2)s1` [1-[4-(5-fluoranyl-1,2-benzoxazol-3-yl)piperidin-1-yl]-2-[(5-methyl-1,3,4-thiadiazol-2-yl)sulfanyl]ethanone]: the concentration for a half-maximal effect (EC50) turned out to be 4.27 µM.

`Fc1ccccc1COc1ccc(C=Nn2cnnc2)cc1` [1-[4-[(2-fluorophenyl)methoxy]phenyl]-N-(1,2,4-triazol-4-yl)methanimine]: the response was half-maximal at 4.62 µM (EC50).

The compound `Fc1ccc(COc2ccc(C=Nn3cnnc3)cc2)cc1` [1-[4-[(4-fluorophenyl)methoxy]phenyl]-N-(1,2,4-triazol-4-yl)methanimine] had an EC50 of 8.28 µM.

Compound `COc1ccc(C(c2c(O)ccc3ccccc23)N2CCOCC2)c(OC)c1` (centres undefined) [1-[(2,4-dimethoxyphenyl)-(4-morpholinyl)methyl]-2-naphthalenol] returned a concentration for a half-maximal effect (EC50) of 4.94 µM.

Compound `Cc1ccc(-c2csc3ncnc(Sc4nnc(CN5CCCCCC5=O)o4)c23)cc1` [1-[[5-[5-(4-methylphenyl)thieno[2,3-d]pyrimidin-4-yl]sulfanyl-1,3,4-oxadiazol-2-yl]methyl]azepan-2-one] yielded an EC50 of 2.35 µM.

Turning to `Nc1nnnn1N=C/C(Br)=C/c1ccccc1` [1-[[(Z)-2-bromanyl-3-phenyl-prop-2-enylidene]amino]-1,2,3,4-tetrazol-5-amine], the EC50 was greater than 10 µM.

The compound `COc1cc2c(cc1OC)C(C)N(C(=O)c1cc3ccccc3o1)CC2` (centres undefined) [1-benzofuran-2-yl-(6,7-dimethoxy-1-methyl-3,4-dihydro-1H-isoquinolin-2-yl)methanone] had an EC50 greater than 95 µM.

In the case of `O=C(NCc1ccc2c(c1)OCO2)C1CC(=O)N(C2CCCCCCC2)C1` (centres undefined) [1-cyclooctyl-5-keto-N-piperonyl-pyrrolidine-3-carboxamide], the EC50 is greater than 95 µM.

Regarding `Cn1c(-c2c(N)n(C3CCCC3)c3nc4ccccc4nc23)nc2ccccc21` [1-cyclopentyl-3-(1-methyl-2-benzimidazolyl)-2-pyrrolo[3,2-b]quinoxalinamine], the EC50 stood at 1.15 µM.

Turning to `C=CS(=O)(=O)c1ccc(Oc2ccc(S(=O)(=O)C=C)cc2)cc1` [1-ethenylsulfonyl-4-(4-ethenylsulfonylphenoxy)benzene], the EC50 turned out to be 2.74 µM.

In turn, `CCn1nc(-c2cccs2)nc2c(=O)n(C)c(=O)nc1-2` [1-ethyl-6-methyl-3-thiophen-2-yl-pyrimido[5,4-e][1,2,4]triazine-5,7-dione] came in with a half-maximal effective concentration (EC50) greater than 10 µM.

On to `O=C(c1ccccc1)C(CCC(CN1CCOCC1)C(=O)c1ccccc1)CN1CCOCC1` (centres undefined) [2,5-bis(4-morpholinylmethyl)-1,6-diphenylhexane-1,6-dione;hydrochloride], for which the EC50 worked out at 4.8 µM.

Regarding `CCCCc1ccc(C2C(C#N)C(=N)SC(=N)C2C#N)s1` (centres undefined) [2,6-bis(azanyl)-4-(5-butylthiophen-2-yl)-4H-thiopyran-3,5-dicarbonitrile], a half-maximal response (EC50) required 13.4 µM.

As for `COCCn1c(C)cc(C(=O)CSc2nc3ccccc3o2)c1C` [2-(1,3-benzoxazol-2-ylsulfanyl)-1-[1-(2-methoxyethyl)-2,5-dimethyl-pyrrol-3-yl]ethanone], the concentration for a half-maximal effect (EC50) was greater than 95 µM.

For `O=C(CSc1nc2ccccc2o1)Nc1ccc(N2CCOCC2)c(Cl)c1` [2-(1,3-benzoxazol-2-ylsulfanyl)-N-(3-chloranyl-4-morpholin-4-yl-phenyl)ethanamide], it took 1.02 µM to reach a half-maximal effect (EC50).

For `CCCCn1nnnc1SCC(=O)c1ccc(C)c(C)c1` [2-(1-Butyl-1H-tetrazol-5-ylsulfanyl)-1-(3,4-dimethyl-phenyl)-ethanone], it took 5.96 µM to reach a half-maximal effect (EC50).

The same test, now with this note: inactive by the depositor's call.
`O=C(C1CCC1)N1CCc2cc(S(=O)(=O)Nc3ccc4c(c3)OCCO4)ccc21` [1-(cyclobutanecarbonyl)-N-(2,3-dihydro-1,4-benzodioxin-6-yl)-2,3-dihydroindole-5-sulfonamide] registered a 50% effective concentration (EC50) of 38.9 µM.

Turning to `O=C(C1CC1)N1CCc2cc(S(=O)(=O)NCC3COc4ccccc4O3)ccc21` (centres undefined) [1-(cyclopropanecarbonyl)-N-(2,3-dihydro-1,4-benzodioxin-3-ylmethyl)-2,3-dihydroindole-5-sulfonamide], the EC50 was determined as 14 µM.

Compound `COc1ccc(-n2c(C)c(C(C)=O)c3cc(O)ccc32)cc1` [1-[1-(4-methoxyphenyl)-2-methyl-5-oxidanyl-indol-3-yl]ethanone] returned an EC50 of 15.6 µM.

`CCN(CC)c1ccc(-n2c(C)c(C(C)=O)c(C(C)=O)c2C)cc1` [1-[1-[4-(diethylamino)phenyl]-4-ethanoyl-2,5-dimethyl-pyrrol-3-yl]ethanone] showed an EC50 of 11.4 µM.

The compound `O=C(NCc1ccco1)C1CCN(C(=O)c2cc3sccc3n2Cc2ccc(Cl)cc2)CC1` [1-[4-(4-chlorobenzyl)thieno[3,2-b]pyrrole-5-carbonyl]-N-(2-furfuryl)isonipecotamide] came in with an EC50 of 10.6 µM.

Turning to `CC(C)(CC(=O)N1CCN(c2ccc(Cl)cc2)CC1)CC1=NS(=O)(=O)c2ccccc2N1` [1-[4-(4-chlorophenyl)-1-piperazinyl]-4-(1,1-dioxo-4H-1,2,4-benzothiadiazin-3-yl)-3,3-dimethyl-1-butanone], it took 10.5 µM to reach a half-maximal effect (EC50).

In turn, `CCCC(=O)c1ccc(N2CCN(C(=O)c3ccccc3Br)CC2)c(F)c1` [1-[4-[4-(2-bromobenzoyl)piperazin-1-yl]-3-fluorophenyl]butan-1-one] came in with a concentration for a half-maximal effect (EC50) of 11.9 µM.

As to `CC(=O)c1ccc(N2CCN(c3ccc(C(F)(F)F)cn3)CC2)cc1` [1-[4-[4-[5-(trifluoromethyl)-2-pyridinyl]-1-piperazinyl]phenyl]ethanone], the concentration for a half-maximal effect (EC50) is 29.4 µM.

In turn, `CC(=O)N1C=CN(C(C)=O)C(c2cn(C)c3ccccc23)C1c1cn(C)c2ccccc12` (centres undefined) [1-[4-acetyl-2,3-bis(1-methyl-3-indolyl)-2,3-dihydropyrazin-1-yl]ethanone] yielded an EC50 of 26.2 µM.

In turn, `CCc1ccc(-c2nc(CSCC(=O)N3CCN(c4ccccn4)CC3)c(C)o2)cc1` [1-[({[2-(4-ethylphenyl)-5-methyl-1,3-oxazol-4-yl]methyl}thio)acetyl]-4-pyridin-2-ylpiperazine] yielded an EC50 of 11.8 µM.

The compound `Cc1cccc(-c2nc(CSCC(=O)N3CCN(c4ccccn4)CC3)c(C)o2)c1` [1-[({[5-methyl-2-(3-methylphenyl)-1,3-oxazol-4-yl]methyl}thio)acetyl]-4-pyridin-2-ylpiperazine] displayed a concentration giving a half-maximal response (EC50) of 13.6 µM.

Regarding `CC(=O)N1CCCc2cc(S(=O)(=O)NCCC3=CCCCC3)ccc21` [1-acetyl-N-(2-cyclohex-1-en-1-ylethyl)-1,2,3,4-tetrahydroquinoline-6-sulfonamide], the midpoint of the response, the EC50, lay at 14.5 µM.

As for `CCCCCn1c(=O)c(C(=O)NCc2ccncc2)c(O)c2ccccc21` [1-amyl-2-hydroxy-4-keto-N-(4-pyridylmethyl)quinoline-3-carboxamide], the response was half-maximal at 19.8 µM (EC50).

Consider `Cc1nn(Cc2ccccc2)c(C)c1C(=O)OCC(=O)c1cc(C)n(C2CC2)c1C` [1-benzyl-3,5-dimethyl-pyrazole-4-carboxylic acid [2-(1-cyclopropyl-2,5-dimethyl-pyrrol-3-yl)-2-keto-ethyl] ester], for which it took 13.9 µM to reach a half-maximal effect (EC50).

With `Cc1nc(C)c(C(=O)Nc2ccc(Oc3ccccc3)cc2)o1` [2,4-dimethyl-N-(4-phenoxyphenyl)-1,3-oxazole-5-carboxamide], a half-maximal effect (EC50) was put at 11 µM.

Turning to `CC1CCc2nc(NC(=O)CSc3nc4ccccc4o3)sc2C1` (centres undefined) [2-(1,3-benzoxazol-2-ylsulfanyl)-N-(6-methyl-4,5,6,7-tetrahydro-1,3-benzothiazol-2-yl)acetamide], it took 57.8 µM to reach a half-maximal effect (EC50).

As to `COc1ccc(-n2c(C)cc(C(=O)COC(=O)Cn3cnc4ccccc43)c2C)cc1` [2-(1-benzimidazolyl)acetic acid [2-[1-(4-methoxyphenyl)-2,5-dimethyl-3-pyrrolyl]-2-oxoethyl] ester], the response was half-maximal at 10.3 µM (EC50).
